# Assay results from patent US8192962B2, “Processes for detecting toxic substances” (Daikin Industries, Ltd., priority 2001, dated 2012).
# Tested on: Mitochondria-located protein genes
# Test: DNA chip mRNA expression in yeast, mitochondria-located protein genes (Table 2)
# Format: cell-based, Saccharomyces cerevisiae S288C
# Conditions: cells incubated two hours with the chemical substance
# Description: Yeast (Saccharomyces cerevisiae S288C (α SUC2mal mel gap2 CUP1)) were incubated at 25° C. on YPD medium (yeast extract 1%, polypepton 2%, glucose 2%). One of toxic chemical substances was added to the cells at logarithmic growth phase, and the cells were further incubated for two hours. Cells were cultured without any chemical substance in the same condition, and were used as control. Concentrations of the chemical substances were defined to inhibit the growth of the yeast but not lead to death.
# After completion of the incubation, the culture was centrifuged to collect the cells. To the cells, sodium acetate buffer (50 mM sodium acetate, 10 mM EDTA, 1% SDS) was added, and the mixture was shaken at 65° C. for five minutes, followed by returning to room temperature, and obtaining the supernatant, of which the procedures were repeated two times. To the supernatant, ½ amount of a solution of phenol/chloroform was added, and the mixture was centrifuged to give a supernatant, which was added with an equal amount of chloroform, and the mixture was centrifuged to give a supernatant. To the supernatant, an equal amount of isopropanol containing 0.3 M sodium acetate was added, and the mixture was allowed to stand at room temperature for 30 minutes, after which the mixture was centrifuged to give a sediment of the whole RNAs. Seventy % ethanol was added to the sediment, and the mixture was again centrifuged to give a sediment, which was then dried and dissolved in water. mRNA was isolated from the whole RNAs as followings. In view of the fact that a poly A chain is attached to the 3′ terminus of mRNA, a polynucleotide having a poly T structure which was immobilized on the surface of latex beads was used to trap the mRNA, and then the mRNA was washed and eluted with spine column (Oligotex-dT30<Super>mRNA Purification Kit, Takara). Reverse transcription of the mRNA was conducted with a reverse transcriptase (Super Script II Reverse Transcriptase; catalogue No. 18064-014, GibcoBRL) using fluorescence-labeled nucleotides to give cDNAs that were introduced with Cy3-dUTP or Cy5-dUTP during the reverse transcription.
# The labeled cDNAs were dissolved in TE buffer (10mM Tris-HCl/1 mM EDTA, pH8.0), and the solution was dropped on the DNA chip containing the whole genes of yeast (DNA Chip Research Inc. Japan) so that the cDNAs were hybridized on the DNA chip at 65° C. for over 12 hours. The fluoresces intensity of the DNA chip was read with a scanner, and the ratio relative to the fluorescence intensity resulting from the absence of chemical substance was estimated as the following, which is shown in Tables 1 to 9: […]
structure (smiles),measurement,setting,value
"Oc1cc(Cl)c(Cl)cc1Cl [(6), 2,4,5-trichlorophenol]",The level of expressed mRNA in the presence of chemical substance/The level of expressed mRNA in the absence of chemical substance,yeast gene YAL039C,0.8
same,The level of expressed mRNA in the presence of chemical substance/The level of expressed mRNA in the absence of chemical substance,yeast gene YBL022C,1.2
same,The level of expressed mRNA in the presence of chemical substance/The level of expressed mRNA in the absence of chemical substance,yeast gene YBL030C,1.1
same,The level of expressed mRNA in the presence of chemical substance/The level of expressed mRNA in the absence of chemical substance,yeast gene YBL038W,0.7
same,The level of expressed mRNA in the presence of chemical substance/The level of expressed mRNA in the absence of chemical substance,yeast gene YBL099W,0.9
same,The level of expressed mRNA in the presence of chemical substance/The level of expressed mRNA in the absence of chemical substance,yeast gene YBR003W,1.2
same,The level of expressed mRNA in the presence of chemical substance/The level of expressed mRNA in the absence of chemical substance,yeast gene YBR044C,1.0
same,The level of expressed mRNA in the presence of chemical substance/The level of expressed mRNA in the absence of chemical substance,yeast gene YBR091C,0.7
same,The level of expressed mRNA in the presence of chemical substance/The level of expressed mRNA in the absence of chemical substance,yeast gene YBR122C,1.1
same,The level of expressed mRNA in the presence of chemical substance/The level of expressed mRNA in the absence of chemical substance,yeast gene YBR185C,1.2
same,The level of expressed mRNA in the presence of chemical substance/The level of expressed mRNA in the absence of chemical substance,yeast gene YBR221C,1.7
same,The level of expressed mRNA in the presence of chemical substance/The level of expressed mRNA in the absence of chemical substance,yeast gene YBR251W,2.0
same,The level of expressed mRNA in the presence of chemical substance/The level of expressed mRNA in the absence of chemical substance,yeast gene YBR282W,1.4
same,The level of expressed mRNA in the presence of chemical substance/The level of expressed mRNA in the absence of chemical substance,yeast gene YCL057W,1.8
same,The level of expressed mRNA in the presence of chemical substance/The level of expressed mRNA in the absence of chemical substance,yeast gene YCR046C,0.8
same,The level of expressed mRNA in the presence of chemical substance/The level of expressed mRNA in the absence of chemical substance,yeast gene YCR083W,2.4
same,The level of expressed mRNA in the presence of chemical substance/The level of expressed mRNA in the absence of chemical substance,yeast gene YDL067C,0.9
same,The level of expressed mRNA in the presence of chemical substance/The level of expressed mRNA in the absence of chemical substance,yeast gene YDL181W,1.2
same,The level of expressed mRNA in the presence of chemical substance/The level of expressed mRNA in the absence of chemical substance,yeast gene YDL198C,0.8
same,The level of expressed mRNA in the presence of chemical substance/The level of expressed mRNA in the absence of chemical substance,yeast gene YDR079W,1.7
same,The level of expressed mRNA in the presence of chemical substance/The level of expressed mRNA in the absence of chemical substance,yeast gene YDR178W,2.1
same,The level of expressed mRNA in the presence of chemical substance/The level of expressed mRNA in the absence of chemical substance,yeast gene YDR231C,2.2
same,The level of expressed mRNA in the presence of chemical substance/The level of expressed mRNA in the absence of chemical substance,yeast gene YDR258C,2.4
same,The level of expressed mRNA in the presence of chemical substance/The level of expressed mRNA in the absence of chemical substance,yeast gene YDR298C,1.2
same,The level of expressed mRNA in the presence of chemical substance/The level of expressed mRNA in the absence of chemical substance,yeast gene YDR347W,1.2
same,The level of expressed mRNA in the presence of chemical substance/The level of expressed mRNA in the absence of chemical substance,yeast gene YDR377W,1.3
same,The level of expressed mRNA in the presence of chemical substance/The level of expressed mRNA in the absence of chemical substance,yeast gene YDR529C,0.8
same,The level of expressed mRNA in the presence of chemical substance/The level of expressed mRNA in the absence of chemical substance,yeast gene YEL024W,1.1
same,The level of expressed mRNA in the presence of chemical substance/The level of expressed mRNA in the absence of chemical substance,yeast gene YEL039C,1.5
same,The level of expressed mRNA in the presence of chemical substance/The level of expressed mRNA in the absence of chemical substance,yeast gene YER178W,2.5
same,The level of expressed mRNA in the presence of chemical substance/The level of expressed mRNA in the absence of chemical substance,yeast gene YFL016C,1.3
same,The level of expressed mRNA in the presence of chemical substance/The level of expressed mRNA in the absence of chemical substance,yeast gene YGL018C,0.4
same,The level of expressed mRNA in the presence of chemical substance/The level of expressed mRNA in the absence of chemical substance,yeast gene YGL187C,1.1
same,The level of expressed mRNA in the presence of chemical substance/The level of expressed mRNA in the absence of chemical substance,yeast gene YGL191W,1.6
same,The level of expressed mRNA in the presence of chemical substance/The level of expressed mRNA in the absence of chemical substance,yeast gene YGR008C,2.9
same,The level of expressed mRNA in the presence of chemical substance/The level of expressed mRNA in the absence of chemical substance,yeast gene YGR028W,1.5
same,The level of expressed mRNA in the presence of chemical substance/The level of expressed mRNA in the absence of chemical substance,yeast gene YGR062C,0.9
same,The level of expressed mRNA in the presence of chemical substance/The level of expressed mRNA in the absence of chemical substance,yeast gene YGR076C,1.2
same,The level of expressed mRNA in the presence of chemical substance/The level of expressed mRNA in the absence of chemical substance,yeast gene YGR082W,1.1
same,The level of expressed mRNA in the presence of chemical substance/The level of expressed mRNA in the absence of chemical substance,yeast gene YGR174C,1.4
same,The level of expressed mRNA in the presence of chemical substance/The level of expressed mRNA in the absence of chemical substance,yeast gene YGR244C,2.6
same,The level of expressed mRNA in the presence of chemical substance/The level of expressed mRNA in the absence of chemical substance,yeast gene YHR008C,1.0
same,The level of expressed mRNA in the presence of chemical substance/The level of expressed mRNA in the absence of chemical substance,yeast gene YIL155C,1.4
same,The level of expressed mRNA in the presence of chemical substance/The level of expressed mRNA in the absence of chemical substance,yeast gene YJL096W,1.0
same,The level of expressed mRNA in the presence of chemical substance/The level of expressed mRNA in the absence of chemical substance,yeast gene YJL102W,1.6
same,The level of expressed mRNA in the presence of chemical substance/The level of expressed mRNA in the absence of chemical substance,yeast gene YJL133W,0.5
same,The level of expressed mRNA in the presence of chemical substance/The level of expressed mRNA in the absence of chemical substance,yeast gene YJL166W,0.7
same,The level of expressed mRNA in the presence of chemical substance/The level of expressed mRNA in the absence of chemical substance,yeast gene YJL180C,1.3
same,The level of expressed mRNA in the presence of chemical substance/The level of expressed mRNA in the absence of chemical substance,yeast gene YJR045C,1.2
same,The level of expressed mRNA in the presence of chemical substance/The level of expressed mRNA in the absence of chemical substance,yeast gene YJR077C,0.9
